Laboratory results: US8008088B2, “SMMR (small molecule metabolite reporters) for use as in vivo glucose biosensors” (Masimo Laboratories, Inc., priority 2003, dated 2011)
Where two headings read alike, the source gives them in different places.

Tests used:
[1] = Fluorescence and absorption response of boronic acid reporters to glucose in buffer solution (in vitro); conditions: for rise in fluorescence intensity on addition of glucose: glucose changed from zero to 300 mg/dL
PHK cells = test: In-vitro detection in PHK cells loaded with reporter, two-photon fluorescent imaging; format: cell-based; conditions: reporter 50 micromolar; glucose increased to 300 mg/dl; EM 440 nm, excitation (2P) 705 nm
Experimental: PHK cells were loaded with AF-327d reporter, at 50 micromolar concentration, in buffer. Fluorescence was measured using a two-photon fluorescent imaging system at approximately EM 440 nm, and excitation at (2P) 705 nm. Pictures taken 10 minutes apart show a slight change in fluorescence intensity upon increasing the glucose concentration to 300 mg/dl in the cell buffer medium. This is seen clearly, as a 20% decrease in time course of fluorescence.

[2] = Glucose response rate in stirred cuvette, pH 8 phosphate buffer; conditions: 100 μL of 300 mg/dL glucose added; monitored every 15 seconds; ex 340 nm, em 440 nm
Experimental: Arg-327 unprotected batches were prepared. One batch was supplied as a yellow powder and the other as a concentrated solution in deuterated methanol. A small sample of these materials was taken and dissolved in 3 ml of pH 8 phosphate buffer. The fluorescence of these materials was excited at 340 nm and the emission monitored at 440 nm. The fluorescence was monitored every 15 seconds in a stirred cuvette. After about 3 minutes 100 μL of 300 mg/dL glucose in pH 8 buffer was added. […] Similar results were obtained for both samples.

[3] = pH dependency of esculetin spectra (pKa determination); format: physicochemical
Source text: The intensity of the fluorescence varies with pH but not the emission wavelength. The absorption spectrum did change with pH, implying the molecule could be used ratiometrically to measure pH using one monitoring wavelength and two excitation wavelengths. The relevant spectra are shown here together with a plot of absorption ratio as a function of pH (FIG. 45).

[4] = Absorption and emission spectra of fluorescein and BeXan (Table 4); format: physicochemical
Source text: The configuration of the dye is strongly influenced by the nature of the heteroatom substitution. The structure of the dye responsible for the absorption may be estimated by consideration of the photophysical properties of related compounds and calculations on them. For example comparison of fluorescein and BeXan type dyes are shown in FIGS. 21a and 21b, with structures shown in Schemes 11 and 12, respectively.

[5] = hydroxyl group at position 3; cited from earlier work
[6] = protonated, first (high energy) band
[7] = protonated, second (low energy) band

O=C(Nc1ccc2c(C(F)(F)F)cc(=O)oc2c1)c1ccc(B(O)O)cc1 [AF-327d]
fluorescence emission (em) [1]: 440 nm | fluorescence excitation (ex) [1]: 340 nm | long wavelength absorption maximum [1]: 333 nm | response to glucose in vitro (in words) [1]: stronger response to glucose than other published compounds | change of absorption spectrum at the excitation wavelength ([1]; as a function of glucose concentration): less than 10% | rise in fluorescence intensity on addition of glucose [1]: 60% | Emission Wavelength ([1]; with and without added glucose at pH=7): 440 nm | decrease in time course of fluorescence (PHK cells): 20% | glucose response rate (fluorescence versus time) [2]: increased immediately

O=C(Nc1ccc([N+](=O)[O-])cc1)c1ccc(B(O)O)cc1 [AF-339]
response to glucose in vitro (in words) [1]: weaker than AF-327

O=C(/C=C/c1ccc(B(O)O)cc1)c1cc2ccccc2oc1=O [AF-343]
response to glucose in vitro (in words) [1]: No fluorescence or glucose effect

O=C(Nc1ccc2oc(=O)c3ccccc3c2c1)c1ccc(B(O)O)cc1 [AF-345]
fluorescence emission (em) [1]: 435 nm | fluorescence excitation (ex) [1]: 330 nm | rise in fluorescence intensity on addition of glucose [1]: 30%

O=c1ccc2cc(O)c(O)cc2o1 [esculetin, 6,7 dihydroxycoumarin]
pKa [3]: 7.5

fluorescein
Difference in energy of protonated absorption bands [4]: 3.6 kcal/mol | Stokes shift for deprotonated bands [4]: 4.1 kcal/mol | Stokes shift for protonated bands [4]: 3.8 kcal/mol | Band position relative to the high-energy protonated absorption band, Absorption ([4]; Deprotonated band): 5.7 kcal/mol | Band position relative to the high-energy protonated absorption band, Emission ([4]; Deprotonated band): 9.8 kcal/mol | Band position relative to the high-energy protonated absorption band, Absorption ([4]; High energy protonated band): 0 kcal/mol | Band position relative to the high-energy protonated absorption band, Emission ([4]; High energy protonated band): 7.4 kcal/mol | Band position relative to the high-energy protonated absorption band, Absorption ([4]; Low energy protonated band): 3.6 kcal/mol | Band position relative to the high-energy protonated absorption band, Emission ([4]; Low energy protonated band): 9.9 kcal/mol | Absorption Energy ([4]; deprotonated): 57.1 kcal/mol | Absorption Wavelength ([4]; deprotonated): 501 nm | Emission Energy ([4]; deprotonated): 53 kcal/mol | Emission Wavelength ([4]; deprotonated): 540 nm | Absorption Energy [4, 6]: 62.8 kcal/mol | Absorption Wavelength [4, 6]: 455 nm | Emission Energy [4, 6]: 55.4 kcal/mol | Emission Wavelength [4, 6]: 516 nm | Absorption Energy [4, 7]: 59.2 kcal/mol | Absorption Wavelength [4, 7]: 483 nm | Emission Energy [4, 7]: 52.9 kcal/mol | Emission Wavelength [4, 7]: 541 nm | pKa [5]: 6.4
